Measurements as given in patent publication US12715849B2, “Herbicidal tetrazole compounds” (SYNGENTA CROP PROTECTION AG, priority 2020, dated 2026).

Experiments:
Format in all cases: in vivo
[1] = system: Ipomoea hederacea (IPOHE); assay: Glasshouse herbicidal test, pre- and post-emergence (Table B1); settings: 130 g/h, evaluated after 13 days; for percentage damage caused to the plant, POST Application IPOHE: post-emergence; for percentage damage caused to the plant, PRE Application IPOHE: pre-emergence
Description: (§1) Seeds of a variety of test species are sown in standard soil in pots (Lolium perenne (LOLPE), Amaranthus retoflexus (AMARE), Amaranthus palmeri (AMAPA), Ablution theophrasti (ABUTH), Setaria faberi (SETFA), Echinochloa crus-galli (ECHCG), Ipomoea hederacea (IPOHE)). After cultivation for one day (pre-emergence) or after 8 days cultivation (post-emergence) under controlled conditions in a glasshouse (at 24/16° C., day/night; 14 hours light; 65% humidity), the plants are sprayed with an aqueous spray solution derived from the formulation of the technical active ingredient in acetone/water (50:50) solution containing 0.5% Tween 20 (polyoxyethelyene sorbitan monolaurate, CAS RN 9005-64-5). Compounds are applied at 130 g/h unless otherwise indicated. The test plants are then grown in a glasshouse under controlled conditions in a glasshouse (at 24/16° C., day/night; 14 hours light; 65% humidity) and watered twice daily. After 13 days for pre and post-emergence, the test is evaluated for the percentage damage caused to the plant. The biological activities are shown in the following table on a five-point scale (5=80-100%; 4=60-79%; 3=40-59%; 2=20-39%; 1=0-19%).

[2] = system: Amaranthus retoflexus (AMARE); assay: as above; settings: 130 g/h, evaluated after 13 days; for percentage damage caused to the plant, POST Application AMARE: post-emergence; for percentage damage caused to the plant, PRE Application AMARE: pre-emergence
Description: as §1

[3] = system: Echinochloa crus-galli (ECHCG); assay: as above; settings: 130 g/h, evaluated after 13 days; for percentage damage caused to the plant, POST Application ECHCG: post-emergence; for percentage damage caused to the plant, PRE Application ECHCG: pre-emergence
Description: as §1

Setaria faberi (SETFA) = assay: as above; settings: 130 g/h, evaluated after 13 days; for percentage damage caused to the plant, POST Application SETFA: post-emergence; for percentage damage caused to the plant, PRE Application SETFA: pre-emergence
Description: as §1

[4] = system: Ablution theophrasti (ABUTH); assay: as above; settings: 130 g/h, evaluated after 13 days; for percentage damage caused to the plant, POST Application ABUTH: post-emergence; for percentage damage caused to the plant, PRE Application ABUTH: pre-emergence
Description: as §1

[5] = system: Amaranthus palmeri (AMAPA); assay: as above; settings: 130 g/h, evaluated after 13 days; for percentage damage caused to the plant, POST Application AMAPA: post-emergence; for percentage damage caused to the plant, PRE Application AMAPA: pre-emergence
Description: as §1

[6] = system: ECHCG (Echinochloa crus-galli); assay: Comparative test, pre-emergence (Table B2); settings: after 14 days
[7] = system: AMARE (Amaranthus retoflexus); assay: Comparative test, pre-emergence (Table B2); settings: after 14 days
SETFA (Setaria faberi) = assay: Comparative test, pre-emergence (Table B2); settings: after 14 days
[8] = system: IPOHE (Ipomoea hederacea); assay: Comparative test, pre-emergence (Table B2); settings: after 14 days

CCS(=O)(=O)Nc1c(OC(F)F)ccc(C(=O)Nc2nnnn2C)c1Cl [Compound 1.064]
percentage damage caused to the plant, POST Application IPOHE [1]: 4 (4=60-79%) | percentage damage caused to the plant, PRE Application IPOHE [1]: 2 (2=20-39%) | percentage damage caused to the plant, POST Application AMARE [2]: 5 (5=80-100%) | percentage damage caused to the plant, PRE Application AMARE [2]: 5 (5=80-100%) | percentage damage caused to the plant, POST Application ECHCG [3]: 5 (5=80-100%) | percentage damage caused to the plant, PRE Application ECHCG [3]: 5 (5=80-100%) | percentage damage caused to the plant, POST Application SETFA (Setaria faberi (SETFA)): 5 (5=80-100%) | percentage damage caused to the plant, PRE Application SETFA (Setaria faberi (SETFA)): 4 (4=60-79%) | percentage damage caused to the plant, POST Application ABUTH [4]: 5 (5=80-100%) | percentage damage caused to the plant, PRE Application ABUTH [4]: 5 (5=80-100%) | percentage damage caused to the plant, POST Application AMAPA [5]: 5 (5=80-100%) | percentage damage caused to the plant, PRE Application AMAPA [5]: 5 (5=80-100%)

Cc1c(C(=O)Nc2nnnn2C)ccc(OC(F)(F)F)c1NS(C)(=O)=O [Compound 1.075]
damage to plant (100 = total damage; 0 = no damage), PRE Application ECHCG ([6]; rate 31 g/ha): 60 | damage to plant (100 = total damage; 0 = no damage), PRE Application ECHCG ([6]; rate 130 g/ha): 90 | percentage damage caused to the plant, POST Application IPOHE [1]: 5 (5=80-100%) | percentage damage caused to the plant, PRE Application IPOHE [1]: 3 (3=40-59%) | percentage damage caused to the plant, POST Application AMARE [2]: 5 (5=80-100%) | percentage damage caused to the plant, PRE Application AMARE [2]: 5 (5=80-100%) | percentage damage caused to the plant, POST Application ECHCG [3]: 5 (5=80-100%) | percentage damage caused to the plant, PRE Application ECHCG [3]: 5 (5=80-100%) | percentage damage caused to the plant, POST Application SETFA (Setaria faberi (SETFA)): 5 (5=80-100%) | percentage damage caused to the plant, PRE Application SETFA (Setaria faberi (SETFA)): 4 (4=60-79%) | percentage damage caused to the plant, PRE Application AMAPA [5]: 5 (5=80-100%) | damage to plant (100 = total damage; 0 = no damage), PRE Application AMARE ([7]; rate 31 g/ha): 80 | damage to plant (100 = total damage; 0 = no damage), PRE Application AMARE ([7]; rate 130 g/ha): 100 | damage to plant (100 = total damage; 0 = no damage), PRE Application SETFA (SETFA (Setaria faberi); rate 31 g/ha): 30 | damage to plant (100 = total damage; 0 = no damage), PRE Application SETFA (SETFA (Setaria faberi); rate 130 g/ha): 60 | damage to plant (100 = total damage; 0 = no damage), PRE Application IPOHE ([8]; rate 31 g/ha): 40 | damage to plant (100 = total damage; 0 = no damage), PRE Application IPOHE ([8]; rate 130 g/ha): 50

Cn1nnnc1NC(=O)c1ccc(OC(F)F)c(NS(C)(=O)=O)c1Cl [Compound 1.065]
percentage damage caused to the plant, POST Application IPOHE [1]: 4 (4=60-79%) | percentage damage caused to the plant, PRE Application IPOHE [1]: 2 (2=20-39%) | percentage damage caused to the plant, POST Application AMARE [2]: 5 (5=80-100%) | percentage damage caused to the plant, PRE Application AMARE [2]: 5 (5=80-100%) | percentage damage caused to the plant, PRE Application ECHCG [3]: 4 (4=60-79%) | percentage damage caused to the plant, POST Application SETFA (Setaria faberi (SETFA)): 5 (5=80-100%) | percentage damage caused to the plant, PRE Application SETFA (Setaria faberi (SETFA)): 3 (3=40-59%) | percentage damage caused to the plant, PRE Application ABUTH [4]: 5 (5=80-100%)

CCn1nnnc1NC(=O)c1ccc(OC(F)(F)F)c(NS(=O)(=O)CC)c1Cl [Compound 1.002, 2-chloro-3-(ethylsulfonylamino)-N-(1-ethyltetrazol-5-yl)-4-(trifluoromethoxy)benzamide]
percentage damage caused to the plant, POST Application IPOHE [1]: 4 (4=60-79%) | percentage damage caused to the plant, PRE Application IPOHE [1]: 5 (5=80-100%) | percentage damage caused to the plant, POST Application AMARE [2]: 5 (5=80-100%) | percentage damage caused to the plant, PRE Application AMARE [2]: 5 (5=80-100%) | percentage damage caused to the plant, POST Application ECHCG [3]: 5 (5=80-100%) | percentage damage caused to the plant, PRE Application ECHCG [3]: 5 (5=80-100%) | percentage damage caused to the plant, POST Application SETFA (Setaria faberi (SETFA)): 5 (5=80-100%) | percentage damage caused to the plant, PRE Application SETFA (Setaria faberi (SETFA)): 5 (5=80-100%) | percentage damage caused to the plant, POST Application ABUTH [4]: 5 (5=80-100%) | percentage damage caused to the plant, PRE Application ABUTH [4]: 5 (5=80-100%)

Cn1nnnc1NC(=O)c1ccc(OC(F)(F)F)c(NS(C)(=O)=O)c1Cl [Compound 1.004]
percentage damage caused to the plant, POST Application IPOHE [1]: 4 (4=60-79%) | percentage damage caused to the plant, PRE Application IPOHE [1]: 3 (3=40-59%) | percentage damage caused to the plant, POST Application AMARE [2]: 5 (5=80-100%) | percentage damage caused to the plant, PRE Application AMARE [2]: 5 (5=80-100%) | percentage damage caused to the plant, POST Application ECHCG [3]: 5 (5=80-100%) | percentage damage caused to the plant, PRE Application ECHCG [3]: 5 (5=80-100%) | percentage damage caused to the plant, POST Application SETFA (Setaria faberi (SETFA)): 5 (5=80-100%) | percentage damage caused to the plant, PRE Application SETFA (Setaria faberi (SETFA)): 5 (5=80-100%) | percentage damage caused to the plant, POST Application ABUTH [4]: 5 (5=80-100%) | percentage damage caused to the plant, PRE Application ABUTH [4]: 5 (5=80-100%)

CCS(=O)(=O)Nc1c(OC(F)(F)F)ccc(C(=O)Nc2nnnn2C)c1C [Compound 1.081]
damage to plant (100 = total damage; 0 = no damage), PRE Application ECHCG ([6]; rate 31 g/ha): 60 | damage to plant (100 = total damage; 0 = no damage), PRE Application ECHCG ([6]; rate 130 g/ha): 90 | percentage damage caused to the plant, POST Application IPOHE [1]: 5 (5=80-100%) | percentage damage caused to the plant, PRE Application IPOHE [1]: 3 (3=40-59%) | percentage damage caused to the plant, POST Application AMARE [2]: 5 (5=80-100%) | percentage damage caused to the plant, PRE Application AMARE [2]: 5 (5=80-100%) | percentage damage caused to the plant, POST Application ECHCG [3]: 5 (5=80-100%) | percentage damage caused to the plant, PRE Application ECHCG [3]: 5 (5=80-100%) | percentage damage caused to the plant, POST Application SETFA (Setaria faberi (SETFA)): 5 (5=80-100%) | percentage damage caused to the plant, PRE Application SETFA (Setaria faberi (SETFA)): 5 (5=80-100%) | percentage damage caused to the plant, POST Application AMAPA [5]: 5 (5=80-100%) | percentage damage caused to the plant, PRE Application AMAPA [5]: 5 (5=80-100%) | damage to plant (100 = total damage; 0 = no damage), PRE Application AMARE ([7]; rate 31 g/ha): 90 | damage to plant (100 = total damage; 0 = no damage), PRE Application AMARE ([7]; rate 130 g/ha): 100 | damage to plant (100 = total damage; 0 = no damage), PRE Application SETFA (SETFA (Setaria faberi); rate 31 g/ha): 20 | damage to plant (100 = total damage; 0 = no damage), PRE Application SETFA (SETFA (Setaria faberi); rate 130 g/ha): 80 | damage to plant (100 = total damage; 0 = no damage), PRE Application IPOHE ([8]; rate 31 g/ha): 40 | damage to plant (100 = total damage; 0 = no damage), PRE Application IPOHE ([8]; rate 130 g/ha): 50

CCn1nnnc1NC(=O)c1ccc(OC(F)F)c(NS(C)(=O)=O)c1Cl [Compound 1.059]
percentage damage caused to the plant, POST Application IPOHE [1]: 5 (5=80-100%) | percentage damage caused to the plant, PRE Application IPOHE [1]: 2 (2=20-39%) | percentage damage caused to the plant, POST Application AMARE [2]: 5 (5=80-100%) | percentage damage caused to the plant, PRE Application AMARE [2]: 5 (5=80-100%) | percentage damage caused to the plant, POST Application ECHCG [3]: 5 (5=80-100%) | percentage damage caused to the plant, PRE Application ECHCG [3]: 5 (5=80-100%) | percentage damage caused to the plant, POST Application SETFA (Setaria faberi (SETFA)): 5 (5=80-100%) | percentage damage caused to the plant, PRE Application SETFA (Setaria faberi (SETFA)): 4 (4=60-79%) | percentage damage caused to the plant, POST Application ABUTH [4]: 5 (5=80-100%) | percentage damage caused to the plant, PRE Application ABUTH [4]: 5 (5=80-100%)
